# Measured values: patent US10336732B2, “1-heterocyclyl isochromanyl compounds and analogs for treating CNS disorders” (Sunovion Pharmaceuticals Inc., priority 2015, dated 2019)
# Test system: mice
# Assay: Neuropharmacological assay (SmartCube), behavioral signature of compound-treated mice
# Type: in vivo
# Conditions: i.p. 15 min before behavioral test, most efficacious dose(s) of 3 doses
# How it was run: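 Mice received compound i.p. in NMP/PEG/propylene glycol vehicle at 3 doses, 15 min before testing. Video-captured behavior was algorithmically compared with a reference-drug signature database.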
Structure (SMILES),AD: ADHD (probability that behavioral signature matches class),AG: analgesic (probability that behavioral signature matches class),AX: anxiolytic (probability that behavioral signature matches class),CE: cognitive enhancer (probability that behavioral signature matches class),DP: anti-depressant (probability that behavioral signature matches class),HA: hallucinogen (probability that behavioral signature matches class),MS: mood stabilizer (probability that behavioral signature matches class),PS: anti-psychotic (probability that behavioral signature matches class),SD: sedative hypnotic (probability that behavioral signature matches class),UN: uncharacterized CNS activity (probability that behavioral signature matches class),XG: anxiogenic (probability that behavioral signature matches class)
"C[C@@]1([C@H]2CCCN2)OCc2cc(F)ccc21 [Compound I-124, (R)-2-((R)-5-fluoro-1-methyl-1,3-dihydroisobenzofuran-1-yl)pyrrolidine]",+ (LOQ ≤ + <5%),+ (LOQ ≤ + <5%),+ (LOQ ≤ + <5%),+ (LOQ ≤ + <5%),+ (LOQ ≤ + <5%),+ (LOQ ≤ + <5%),+ (LOQ ≤ + <5%),+ (LOQ ≤ + <5%),+ (LOQ ≤ + <5%),+ (LOQ ≤ + <5%),+ (LOQ ≤ + <5%)
"C[C@]1([C@H]2CCCN2)OCc2cc(F)ccc21 [Compound I-125, (R)-2-((S)-5-fluoro-1-methyl-1,3-dihydroisobenzofuran-1-yl)pyrrolidine]",+ (LOQ ≤ + <5%),++ (5% ≤ ++ <25%),++ (5% ≤ ++ <25%),++ (5% ≤ ++ <25%),++++ (50% ≤ ++++),+ (LOQ ≤ + <5%),+ (LOQ ≤ + <5%),+ (LOQ ≤ + <5%),++ (5% ≤ ++ <25%),+ (LOQ ≤ + <5%),+ (LOQ ≤ + <5%)
"Fc1ccc2c(c1)CO[C@@H]2[C@@H]1CCN1 [Compound I-126, (S)-2-((S)-5-fluoro-1,3-dihydroisobenzofuran-1-yl)azetidine]",+ (LOQ ≤ + <5%),++ (5% ≤ ++ <25%),++ (5% ≤ ++ <25%),++ (5% ≤ ++ <25%),+++ (25% ≤ +++ <50%),+ (LOQ ≤ + <5%),+ (LOQ ≤ + <5%),+++ (25% ≤ +++ <50%),++ (5% ≤ ++ <25%),++ (5% ≤ ++ <25%),+ (LOQ ≤ + <5%)
"Fc1ccc2c(c1)CO[C@@H]2[C@H]1CCN1 [Compound I-127, (R)-2-((S)-5-fluoro-1,3-dihydroisobenzofuran-1-yl)azetidine]",+ (LOQ ≤ + <5%),++ (5% ≤ ++ <25%),++ (5% ≤ ++ <25%),++ (5% ≤ ++ <25%),++ (5% ≤ ++ <25%),+ (LOQ ≤ + <5%),+ (LOQ ≤ + <5%),++ (5% ≤ ++ <25%),+ (LOQ ≤ + <5%),++ (5% ≤ ++ <25%),+ (LOQ ≤ + <5%)
"Fc1ccc2c(c1)CO[C@H]2[C@H]1CCN1 [Compound I-128, (R)-2-((R)-5-fluoro-1,3-dihydroisobenzofuran-1-yl)azetidine]",+ (LOQ ≤ + <5%),++ (5% ≤ ++ <25%),++ (5% ≤ ++ <25%),+ (LOQ ≤ + <5%),++ (5% ≤ ++ <25%),+ (LOQ ≤ + <5%),+ (LOQ ≤ + <5%),++++ (50% ≤ ++++),+ (LOQ ≤ + <5%),+ (LOQ ≤ + <5%),+ (LOQ ≤ + <5%)
"OC1CO[C@@H]([C@@H]2CCCN2)c2ccc(F)cc21 (stereo partly drawn) [Compound I-134, (1R)-6-fluoro-1-((S)-pyrrolidin-2-yl)isochroman-4-ol]",+ (LOQ ≤ + <5%),+ (LOQ ≤ + <5%),++ (5% ≤ ++ <25%),+ (LOQ ≤ + <5%),+ (LOQ ≤ + <5%),+ (LOQ ≤ + <5%),+ (LOQ ≤ + <5%),+ (LOQ ≤ + <5%),+ (LOQ ≤ + <5%),+ (LOQ ≤ + <5%),+ (LOQ ≤ + <5%)
"Fc1ccc2c(c1)[C@H](F)CO[C@H]2[C@@H]1CCN1 [Compound I-135, (2S)-2-((1R)-4,6-difluoroisochroman-1-yl)azetidine]",+ (LOQ ≤ + <5%),++ (5% ≤ ++ <25%),++ (5% ≤ ++ <25%),++ (5% ≤ ++ <25%),++ (5% ≤ ++ <25%),+ (LOQ ≤ + <5%),++ (5% ≤ ++ <25%),+++ (25% ≤ +++ <50%),++ (5% ≤ ++ <25%),++ (5% ≤ ++ <25%),+ (LOQ ≤ + <5%)
"Fc1ccc2c(c1)[C@H](F)CO[C@H]2[C@@H]1CCCN1 [Compound I-137, (S)-2-((1R,4S)-4,6-difluoroisochroman-1-yl)pyrrolidine]",+ (LOQ ≤ + <5%),++ (5% ≤ ++ <25%),++ (5% ≤ ++ <25%),++ (5% ≤ ++ <25%),++ (5% ≤ ++ <25%),+ (LOQ ≤ + <5%),++ (5% ≤ ++ <25%),++++ (50% ≤ ++++),++ (5% ≤ ++ <25%),++ (5% ≤ ++ <25%),+ (LOQ ≤ + <5%)
"Fc1ccc2c(c1)[C@@H](F)CO[C@H]2[C@@H]1CCCN1 [Compound I-138, (S)-2-((1R,4R)-4,6-difluoroisochroman-1-yl)pyrrolidine]",+ (LOQ ≤ + <5%),+ (LOQ ≤ + <5%),++ (5% ≤ ++ <25%),+ (LOQ ≤ + <5%),++ (5% ≤ ++ <25%),+ (LOQ ≤ + <5%),+ (LOQ ≤ + <5%),+++ (25% ≤ +++ <50%),+ (LOQ ≤ + <5%),++ (5% ≤ ++ <25%),+ (LOQ ≤ + <5%)
